Values joined by “and” are separate entries in the source; they are usually repeats but may differ in a detail not shown here. Equal values may be shown once.
What was measured:
5-lipoxygenase = molecular target: T1, 5-lipoxygenase (Rattus norvegicus, UniProt P12527); experiment: PMN5LO assay: inhibition of LTB4 production in A23187-stimulated rat peritoneal PMN (RIA); type: cell-based; conditions: for IC50: estimated concentration required for 50% inhibition
T1 construct: endogenous in cells; host or cells: casein-elicited peritoneal polymorphonuclear leukocytes of male Sprague-Dawley rats
T1 sequence (P12527 1-673): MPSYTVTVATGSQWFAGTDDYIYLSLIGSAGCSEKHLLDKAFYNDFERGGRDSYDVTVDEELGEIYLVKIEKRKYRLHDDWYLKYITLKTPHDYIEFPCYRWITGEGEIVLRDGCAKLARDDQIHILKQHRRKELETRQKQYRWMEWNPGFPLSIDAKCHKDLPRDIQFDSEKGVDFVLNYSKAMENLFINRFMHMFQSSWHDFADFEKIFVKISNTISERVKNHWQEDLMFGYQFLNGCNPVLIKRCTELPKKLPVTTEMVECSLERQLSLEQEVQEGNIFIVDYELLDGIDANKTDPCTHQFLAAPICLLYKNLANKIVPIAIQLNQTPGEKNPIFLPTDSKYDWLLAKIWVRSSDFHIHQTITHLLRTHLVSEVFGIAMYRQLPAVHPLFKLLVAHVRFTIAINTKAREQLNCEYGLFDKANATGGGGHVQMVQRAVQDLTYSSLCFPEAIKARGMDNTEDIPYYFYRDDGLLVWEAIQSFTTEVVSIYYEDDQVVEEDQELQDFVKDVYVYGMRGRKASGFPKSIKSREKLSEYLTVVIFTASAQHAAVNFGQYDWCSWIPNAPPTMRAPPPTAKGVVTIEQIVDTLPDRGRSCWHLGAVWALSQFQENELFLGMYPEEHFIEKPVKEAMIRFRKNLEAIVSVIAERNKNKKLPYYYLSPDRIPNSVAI
Protocol: (§1) Two screening methods were employed for the purposes of evaluating the biological activities of the compounds of the present invention. The PMN5LO assay is a direct measure of the capacity to inhibit 5-lipoxygenase. The second protocol, RSVM-CO, is a method of determining inhibition of cyclooxygenase enzyme activity and as such it serves as a negative control.
Elicition of Rat Peritoneal polymorphonuclear leukoytes (PMN)
Male Sprague-Dawley rats (about 350 grams) were injected intraperitoneally the day before use with 8 ml of 12% sodium caseinate. The next day the animals were killed by CO2 asphyxiation and the peritoneal cavity lavaged twice with 20 ml of Hanks balanced salts containing 15 mM HEPES (pH 7.4), 1.4 mM Ca^++ and 0.7 mM Mg^++ (Hepes-Hanks). The suspensions were filtered through plastic mesh and centrifuged at […] for 5 minutes. The cells were resuspended in 50 ml Hepes-Hanks and recentrifuged. The PMN pellets were combined and suspended at 1.25×10^7 cells/ml.
The cell suspension was then diluted 1:10, preincubated 5 minutes at 37° C. and distributed in 200 μl aliquots in the wells of 96 well microtiter plates. The wells had previously received samples of the compounds of the present invention, controls, etc., in 25 μl of 0.001% fatty acidfree BSA in Hepes-Hanks. The plates were incubated 2 minutes at 37° C. and then the cells were stimulated to produce LTB4 by the addition of 25 μl of 100 μM calcium ionophore, designated A23187. After 4 minutes at 37° C. the plates were frozen in dry ice.
Radioimmunoassay (RIA) of LTB4
The frozen plates were thawed to 4° C. and 25 μl aliquots removed to V well plates. Antibody to LTB4 (50 μl) was added and, after 15 minutes at room temperature, 50 μl of ^3 H-LTB4 was added and the plates were stored overnight at 4° C. to allow equilibration. The next day the "free" 3H-LTB4 was removed by adsorption to dextran coated charcoal [90 μl per well of a 4% charcoal suspension with 0.25% Dextran T-70 in 10 mM potassium phosphate (pH 7.3) containing lmM EDTA and 0.25 mM thimerasol] during a 10 minute ice temperature incubation. The charcoal was removed by a 10 minute centrifugation at 200 sg. Aliquots of the supernatant were counted in a Packard 460, analyzed in a Masscomp computer and the data drawn up as % inhibition of LTB4 production.

cyclooxygenase = molecular target: T2, cyclooxygenase (Ovis aries, UniProt P05979); experiment: RSVM-CO: Ram Seminal Vesicle Microsomal Cyclooxygenase assay; type: biochemical; conditions: for inhibition at 0.1 µg/mL: 0.1 μg/ml; for inhibition at 1 µg/mL: 1 μg/ml
T2 construct: Ram seminal vesicular glands were trimmed of fat; from tissue; host or cells: ram seminal vesicular glands, microsomal pellet (105K xg)
T2 sequence (P05979 25-600): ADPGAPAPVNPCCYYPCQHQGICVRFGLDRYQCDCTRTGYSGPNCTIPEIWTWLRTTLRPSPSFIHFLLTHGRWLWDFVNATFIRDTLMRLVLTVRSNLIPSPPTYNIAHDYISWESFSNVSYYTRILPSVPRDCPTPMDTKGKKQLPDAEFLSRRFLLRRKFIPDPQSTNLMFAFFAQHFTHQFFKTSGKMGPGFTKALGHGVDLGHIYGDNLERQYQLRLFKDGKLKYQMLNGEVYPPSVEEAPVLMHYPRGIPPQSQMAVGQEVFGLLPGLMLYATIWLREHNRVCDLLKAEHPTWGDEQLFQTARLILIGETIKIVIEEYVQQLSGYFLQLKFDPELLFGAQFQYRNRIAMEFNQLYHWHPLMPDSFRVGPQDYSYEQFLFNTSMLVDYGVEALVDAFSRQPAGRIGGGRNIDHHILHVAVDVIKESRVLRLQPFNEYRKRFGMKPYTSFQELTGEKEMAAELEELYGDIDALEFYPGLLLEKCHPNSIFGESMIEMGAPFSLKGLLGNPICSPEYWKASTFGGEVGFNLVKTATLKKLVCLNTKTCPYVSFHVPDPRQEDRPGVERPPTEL
Source text: as §1
B. Ram Seminal Vesicle Microsomal Cyclooxygenase (RSVM-CO) Assay Protocol
Ram seminal vesicular glands were trimmed of fat, 50 grams diced into 250 mls ice cold 0.1 M potassium phosphate (pH 7.6) buffer and homogenized using a Brinkman Polytron. The suspension was centrifuged 10 minutes at […] (4° C.) and the supernatant filtered through two cheesecloth layers. The filtrate was centrifuged 160 minutes at 105K xg, the supernatant thereof discarded, and the pellet surface rinsed with a small volume of buffer. The pellets were combined in a small volume, briefly homogenized with the Polytron and frozen in 0.5 ml aliquots at -80° C. The protein concentration was about 50 mg/ml.
The thawed enzyme was diluted 1:63 with 0.125 M Na EDTA (pH 8.0) containing 50 μg/ml BSA. A substrate-cofactor premix was prepared with 66 μM ^14 C-arachidonic acid (about 20K cpm/12.5 μl) in 500 μl 0.125 M Na EDTA (pH 8.0) plus 10 μl 50 mM hydroquinone and 10 μl 200 mM glutathione. To each sample well in the 96 well plate, agents dissolved in 0.5 μ DMSO were added, followed by 12.5 μl of the diluted enzyme. After a 4 minute preincubation at room temperature, 12.5 μl of the substrate-cofactor mix was added to start the reaction. The reaction was terminated after 20 minutes at room temperature by adding 25 μl of methanol containing 200 μg PGE2 and 400 μg AA per ml.
The entire reaction mixture was spotted onto a preadsorbent silica gel GF thin layer plate and, after air drying 45 minutes, developed 12 cm in ethyl acetate:glacial acetic acid (99:1).
The developed lanes were scanned for the distribution of radiolabel using a Bioscan Imaging Detector and the integrated peaks compared to standards and controls yielding % inhibition.

Row | inhibition at 0.01 µg/mL (cyclooxygenase; 0.01 μg/ml) | SMILES | PMN5LO % inhibition (5-lipoxygenase; 0.11 μg/ml) | inhibition at 0.11 µg/mL (5-lipoxygenase; 0.11 μg/ml) | PMN5LO % inhibition (5-lipoxygenase; 0.33 μg/ml) | inhibition at 0.33 µg/mL (5-lipoxygenase; 0.33 μg/ml) | IC50 (5-lipoxygenase) | inhibition at 0.1 µg/mL (cyclooxygenase) | inhibition at 1 µg/mL (cyclooxygenase) | PMN5LO % inhibition (5-lipoxygenase; 0.012 μg/ml) | inhibition at 0.012 µg/mL (5-lipoxygenase; 0.012 μg/ml) | PMN5LO % inhibition (5-lipoxygenase; 1 μg/ml) | inhibition at 1 µg/mL (5-lipoxygenase; 1 μg/ml) | inhibition at 0.037 µg/mL (5-lipoxygenase; 0.037 μg/ml)
1 | 28% | COCOc1cc(-c2ccccc2)sc1-c1ccccc1 [Compound 12, 2,5-Diphenyl-3-(methoxymethoxy)-thiophene] | 40% | 31% | 84% | 74% | 580 nM and 350 nM | 0% | 100% | – | – | – | – | –
2 | – | COc1ccc(-c2sc(-c3ccccc3)cc2OC(C)=O)cc1 [Compound 14, 3-Acetoxy-2-(4'-methoxyphenyl)-5-phenylthiophene] | 91% and 46% | – | 85% | 100% | 80 nM | 0% | – | 12% | 24% | 80% | 100% | –
3 | – | CC(=O)Oc1cscc1-c1ccccc1 [Compound 15, 3-Acetoxy-4-phenylthiophene] | – | 0% | – | 0% | – | 0% | 0% | – | 9% | – | 10% | 0%
4 | – | CC(=O)Oc1cc(-c2ccccc2)sc1-c1cccnc1 [Compound 16, 3-Acetoxy-2-(3'-pyridyl)-5-phenylthiophene] | – | – | 84% | 94% | 230 nM | 0% | 0% | – | – | 88% | 100% | –
